The target of this assay is T1, human SARM1(50-724) (Homo sapiens, UniProt Q6SZW1).
T1 construct: 40 nM human SARM1(50-724)
T1 sequence (Q6SZW1 50-724): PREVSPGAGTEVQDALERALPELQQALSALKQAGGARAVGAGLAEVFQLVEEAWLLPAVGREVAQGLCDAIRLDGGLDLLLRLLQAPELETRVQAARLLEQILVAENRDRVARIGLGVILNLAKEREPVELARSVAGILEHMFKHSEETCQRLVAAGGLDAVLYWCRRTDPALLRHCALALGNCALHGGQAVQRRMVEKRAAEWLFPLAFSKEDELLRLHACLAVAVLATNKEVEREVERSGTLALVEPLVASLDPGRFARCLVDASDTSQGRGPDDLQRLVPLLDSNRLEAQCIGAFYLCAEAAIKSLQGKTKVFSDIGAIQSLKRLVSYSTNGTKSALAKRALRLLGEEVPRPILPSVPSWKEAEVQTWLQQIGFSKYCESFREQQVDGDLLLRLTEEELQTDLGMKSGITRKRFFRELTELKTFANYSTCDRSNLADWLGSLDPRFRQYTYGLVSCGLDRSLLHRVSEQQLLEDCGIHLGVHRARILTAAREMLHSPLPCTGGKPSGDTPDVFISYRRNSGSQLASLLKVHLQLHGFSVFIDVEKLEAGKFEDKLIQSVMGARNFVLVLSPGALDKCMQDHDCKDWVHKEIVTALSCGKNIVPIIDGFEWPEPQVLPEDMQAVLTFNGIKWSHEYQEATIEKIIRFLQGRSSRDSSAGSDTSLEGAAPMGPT
Put plainly: SARM1 NADase biochemical assay (HPLC of NAD and NAM). As to conditions: 40 nM human SARM1(50-724), 0.3 mM NMN, 20 μM NAD, 60 minutes room temperature; dose-response from 100 μM, 1:3 dilution. The gist of the method: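 Human SARM1(50-724) at 40 nM with 0.3 mM NMN, 20 μM NAD, 1 mM TCEP in 25 mM HEPES pH 7.4, 10 mM KCl, 10 mM MgCl2, 1% DMSO; 60 min at room temperature, formic acid quench. NAD and NAM quantified by reverse-phase HPLC peak area; single point 50 μM or 1:3 series from 100 μM.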
Regarding `O=C1N(Cc2ccc(Cl)cc2)CCN1c1cnn(-c2ccncc2)c1` [Example 158, 1-(4-Chlorobenzyl)-3-(1-(pyridin-4-yl)-1H-pyrazol-4-yl)imidazolidin-2-one], the IC50 (in general, the midpoint of a concentration-inhibition curve) was in the range of 1000 to 10000 nM.
With `O=C1N(Cc2ccc(Cl)cc2)CCCN1c1cnn(-c2ccncc2)c1` [Example 159, 1-(4-Chlorobenzyl)-3-(1-(pyridin-4-yl)-1H-pyrazol-4-yl)tetrahydropyrimidin-2(1H)-one] the figure was 1000 to 10000 nM; with `S=C(NCc1ccc(Cl)cc1)Nc1cnn(-c2ccncc2)c1` [Example 160, 1-(4-Chlorobenzyl)-3-(1-(pyridin-4-yl)-1H-pyrazol-4-yl)thiourea], 1000 to 10000 nM; with `Cc1c(-c2ccncc2)n[nH]c1NC(=O)NCc1ccc(Cl)cc1` [Example 161, 1-(4-Chlorobenzyl)-3-(4-methyl-3-(pyridin-4-yl)-1H-pyrazol-5-yl)urea], less than 1000 nM.
Turning to `O=C(CCc1ccc(Cl)cc1)Nc1nnc(-c2ccncc2)[nH]1` [Example 162, 3-(4-Chlorophenyl)-N-(5-(pyridin-4-yl)-4H-1,2,4-triazol-3-yl)propanamide], the IC50 is less than 1000 nM.
Then `O=C(NCc1cc(F)c(Cl)c(F)c1)Nc1cc(-c2ccncc2)n[nH]1` [Example 163, 1-(4-Chloro-3,5-difluorobenzyl)-3-(3-(pyridin-4-yl)-1H-pyrazol-5-yl)urea], with less than 1000 nM; and `O=C(NCc1cc(F)c(F)c(F)c1)Nc1cc(-c2ccncc2)n[nH]1` [Example 164, 1-(3-(Pyridin-4-yl)-1H-pyrazol-5-yl)-3-(3,4,5-trifluorobenzyl)urea], with less than 1000 nM.
With `O=C(NCc1ccc(Cl)cc1)Nc1cc(-c2ccncc2)n[nH]1` [Example 165, 1-(4-Chlorobenzyl)-3-(3-(pyridin-4-yl)-1H-pyrazol-5-yl)urea] the figure was less than 1000 nM; with `O=C(CCc1cc(F)c(F)c(F)c1)Nc1[nH]nc(-c2ccncc2)c1Cl` [Example 167, N-(4-Chloro-3-(pyridin-4-yl)-1H-pyrazol-5-yl)-3-(3,4,5-trifluorophenyl)propanamide], less than 1000 nM.
With `O=C(NCc1ccc(Cl)cc1)Nc1[nH]nc(-c2ccncc2)c1Cl` [Example 168, 1-(4-Chloro-3-(pyridin-4-yl)-1H-pyrazol-5-yl)-3-(4-chlorobenzyl)urea] the figure was less than 1000 nM; with `COc1cnccc1-c1cc(NC(=O)CCc2ccc(Cl)cc2)[nH]n1` [Example 169, 3-(4-Chlorophenyl)-N-(3-(3-methoxypyridin-4-yl)-1H-pyrazol-5-yl)propanamide], 1000 to 10000 nM.
On to `O=C(CCc1ccc(Cl)cc1)Nc1cc(-c2ccncc2F)n[nH]1` [Example 170, 3-(4-Chlorophenyl)-N-(3-(3-fluoropyridin-4-yl)-1H-pyrazol-5-yl)propanamide], for which the IC50 is less than 1000 nM.

The values are drawn from US12404265B2, “Substituted pyridine derivatives as SARM1 inhibitors” (Nura Bio, Inc., priority 2020, dated 2025).
